Patent publication US12440550B2 (priority 2015, dated 2025)

Experiments:
Calu-3 cells [1] = format: cell-based, human
Calu-3 cells [2] = tested on: Calu-3 cells

| SMILES | increase in transduction efficiency with respect to virus formulated in saline (factor) (Calu-3 cells [1]) | cell lysis (Calu-3 cells [2]) [%] |
| --- | --- | --- |
| OC[C@H]1O[C@@](CO)(O[C@H]2O[C@H](CO)[C@@H](O)[C@H](O)[C@H]2O)[C@@H](O)[C@@H]1O [sucrose] | 1.96 |  |
| OC[C@H]1O[C@H](OC[C@H]2O[C@H](O[C@]3(CO)O[C@H](CO)[C@@H](O)[C@@H]3O)[C@H](O)[C@@H](O)[C@@H]2O)[C@H](O)[C@@H](O)[C@H]1O [raffinose] | did not significantly enhance transduction |  |
| CCCCCCCCCCCCO[C@@H]1O[C@H](CO)[C@@H](O[C@H]2O[C@H](CO)[C@@H](O)[C@H](O)[C@H]2O)[C@H](O)[C@H]1O [nDMPS, N-dodecyl-β-D-maltopyranoside, reference compound] | second most efficacious formulation | > 80 |
| OC[C@@H](O)[C@@H](O)[C@H](O)[C@H](O)CO [mannitol] | 1.61 |  |
| OC[C@H]1O[C@@](CO)(O[C@H]2O[C@H](CO)[C@@H](O)[C@H](O)[C@H]2O)[C@@H](O[C@H]2O[C@H](CO)[C@@H](O)[C@H](O)[C@H]2O)[C@@H]1O [melezitose] | 1.51 |  |
| OC[C@@H](O)[C@@H](O)[C@H](O)[C@@H](O)CO [sorbitol] | did not significantly enhance transduction |  |
